Source: paper PMC5218480 (PLoS ONE, 2017)

Test system: MV-4-11 cells
Experiment: Gene expression microarray analysis (Affymetrix PrimeView) and GSEA
Format: cell-based, human
Design: RFU PODN (11730768_x_at) / Fold change /veh PODN (11730768_x_at) / RFU LINC00158 (11744669_a_at) / Fold change /veh LINC00158 (11744669_a_at) / RFU DUSP10 (11751237_a_at) / Fold change /veh DUSP10 (11751237_a_at) / RFU ID3 (11757404_x_at) / Fold change /veh ID3 (11757404_x_at) / RFU PLEKHG5 (11737974_s_at) / Fold change /veh PLEKHG5 (11737974_s_at) / RFU LRRC4B (11730491_at) / Fold change /veh LRRC4B (11730491_at) / RFU GIMAP4 (11747438_a_at) / Fold change /veh GIMAP4 (11747438_a_at) / RFU KRT8 (11758183_x_at) / Fold change /veh KRT8 (11758183_x_at) / RFU CNN1 (11734310_a_at) / Fold change /veh CNN1 (11734310_a_at) / RFU VPS37D (11726825_at) / Fold change /veh VPS37D (11726825_at) / RFU C10orf10 (11716522_x_at) / Fold change /veh C10orf10 (11716522_x_at) / RFU KIR2DL2 /// KIR2DL4 /// KIR2DL5A /// KIR2DL5B /// KIR2DS1 /// KIR2DS2 /// KIR2DS3 /// KIR2DS4 /// KIR3DL3 /// KIR3DL3 /// KIR3DS1 (11738374_at) / Fold change /veh KIR2DL2 /// KIR2DL4 /// KIR2DL5A /// KIR2DL5B /// KIR2DS1 /// KIR2DS2 /// KIR2DS3 /// KIR2DS4 /// KIR3DL3 /// KIR3DL3 /// KIR3DS1 (11738374_at) / RFU C1QL1 (11718748_at) / Fold change /veh C1QL1 (11718748_at) / RFU TMPRSS4 (11747572_a_at) / Fold change /veh TMPRSS4 (11747572_a_at) / RFU HAMP (11756126_x_at) / Fold change /veh HAMP (11756126_x_at) / RFU RNFT2 (11725882_a_at) / Fold change /veh RNFT2 (11725882_a_at) / RFU NR4A2 (11747474_a_at) / Fold change /veh NR4A2 (11747474_a_at) / RFU ABCC12 (11746883_a_at) / Fold change /veh ABCC12 (11746883_a_at) / RFU TMEM136 (11760407_x_at) / Fold change /veh TMEM136 (11760407_x_at) / RFU CLDN22 /// WWC2 (11732394_at) / Fold change /veh CLDN22 /// WWC2 (11732394_at) / RFU HLA-DPB1 (11760878_x_at) / Fold change /veh HLA-DPB1 (11760878_x_at) / RFU SPINT1 (11716480_a_at) / Fold change /veh SPINT1 (11716480_a_at) / RFU GAP43 (11754022_s_at) / Fold change /veh GAP43 (11754022_s_at) / RFU A4GNT (11735810_at) / Fold change /veh A4GNT (11735810_at) / RFU PRB3 (11715151_x_at) / Fold change /veh PRB3 (11715151_x_at) / RFU TUBB4B (11761932_at) / Fold change /veh TUBB4B (11761932_at) / RFU CAPN14 (11732068_a_at) / Fold change /veh CAPN14 (11732068_a_at) / RFU TMCC2 (11721928_a_at) / Fold change /veh TMCC2 (11721928_a_at) / RFU IRGQ (11745062_a_at) / Fold change /veh IRGQ (11745062_a_at) / RFU FAM174B (11720279_a_at) / Fold change /veh FAM174B (11720279_a_at) / RFU TMPRSS4 (11748680_a_at) / Fold change /veh TMPRSS4 (11748680_a_at) / RFU FAM212B (11763350_a_at) / Fold change /veh FAM212B (11763350_a_at) / RFU PLEKHG5 (11743358_a_at) / Fold change /veh PLEKHG5 (11743358_a_at) / RFU ZSCAN30 (11745921_a_at) / Fold change /veh ZSCAN30 (11745921_a_at) / RFU CMKLR1 (11741424_a_at) / Fold change /veh CMKLR1 (11741424_a_at) / RFU LOC101060620 /// MAPK8IP1 (11723275_at) / Fold change /veh LOC101060620 /// MAPK8IP1 (11723275_at) / RFU SPTSSB (11747773_x_at) / Fold change /veh SPTSSB (11747773_x_at) / RFU PRSS12 (11739890_at) / Fold change /veh PRSS12 (11739890_at) / RFU BIN1 (11741810_x_at) / Fold change /veh BIN1 (11741810_x_at) / RFU WNT11 (11732464_a_at) / Fold change /veh WNT11 (11732464_a_at) / RFU C10orf10 (11716521_a_at) / Fold change /veh C10orf10 (11716521_a_at) / RFU C5orf56 (11738089_at) / Fold change /veh C5orf56 (11738089_at) / RFU CYB561 (11721691_x_at) / Fold change /veh CYB561 (11721691_x_at) / RFU ANKRD19P (11752326_a_at) / Fold change /veh ANKRD19P (11752326_a_at) / RFU OR2T12 /// OR2T33 /// OR2T8 (11738714_s_at) / Fold change /veh OR2T12 /// OR2T33 /// OR2T8 (11738714_s_at) / RFU VCAN (11748164_a_at) / Fold change /veh VCAN (11748164_a_at) / RFU JSRP1 (11732532_at) / Fold change /veh JSRP1 (11732532_at) / RFU KRTAP10-11 (11738290_x_at) / Fold change /veh KRTAP10-11 (11738290_x_at) / RFU MYO3A (11730013_a_at) / Fold change /veh MYO3A (11730013_a_at) / RFU EBF3 (11725865_a_at) / Fold change /veh EBF3 (11725865_a_at) / RFU CAMK2N1 (11719241_x_at) / Fold change /veh CAMK2N1 (11719241_x_at) / RFU C5orf56 (11738088_a_at) / Fold change /veh C5orf56 (11738088_a_at) / RFU OLFML3 (11715873_a_at) / Fold change /veh OLFML3 (11715873_a_at) / RFU LOC100653217 /// NTM (11731650_a_at) / Fold change /veh LOC100653217 /// NTM (11731650_a_at) / RFU MAPK11 (11762145_a_at) / Fold change /veh MAPK11 (11762145_a_at) / RFU FIZ1 (11724087_x_at) / Fold change /veh FIZ1 (11724087_x_at) / RFU OASL (11726364_x_at) / Fold change /veh OASL (11726364_x_at) / RFU SOX15 (11748057_x_at) / Fold change /veh SOX15 (11748057_x_at) / RFU CD79A (11719716_a_at) / Fold change /veh CD79A (11719716_a_at) / RFU HIST1H1D (11736915_at) / Fold change /veh HIST1H1D (11736915_at) / RFU CASKIN2 (11723855_a_at) / Fold change /veh CASKIN2 (11723855_a_at) / RFU LOC730098 (11760151_x_at) / Fold change /veh LOC730098 (11760151_x_at) / RFU OR4N2 (11742367_at) / Fold change /veh OR4N2 (11742367_at) / RFU PRRT2 (11749266_a_at) / Fold change /veh PRRT2 (11749266_a_at) / RFU SNX32 (11753110_a_at) / Fold change /veh SNX32 (11753110_a_at) / RFU CDHR5 (11726645_a_at) / Fold change /veh CDHR5 (11726645_a_at) / RFU RCAN1 (11760418_a_at) / Fold change /veh RCAN1 (11760418_a_at) / RFU FAM167A (11723789_a_at) / Fold change /veh FAM167A (11723789_a_at) / RFU FAM26E (11764081_at) / Fold change /veh FAM26E (11764081_at) / RFU ISYNA1 (11749810_s_at) / Fold change /veh ISYNA1 (11749810_s_at) / RFU ACY1 (11761880_at) / Fold change /veh ACY1 (11761880_at) / RFU 11764098_at / Fold change /veh 11764098_at / RFU SAMD14 (11745864_x_at) / Fold change /veh SAMD14 (11745864_x_at) / RFU NPB (11741838_a_at) / Fold change /veh NPB (11741838_a_at) / RFU TMPRSS6 (11731388_a_at) / Fold change /veh TMPRSS6 (11731388_a_at) / RFU KRTAP10-2 (11738614_at) / Fold change /veh KRTAP10-2 (11738614_at) / RFU ARHGAP8 /// PRR5-ARHGAP8 (11727945_x_at) / Fold change /veh ARHGAP8 /// PRR5-ARHGAP8 (11727945_x_at) / RFU KRTAP5-7 /// NADSYN1 (11734609_at) / Fold change /veh KRTAP5-7 /// NADSYN1 (11734609_at) / RFU RASL12 (11751679_a_at) / Fold change /veh RASL12 (11751679_a_at) / RFU CDKN2B (11736163_a_at) / Fold change /veh CDKN2B (11736163_a_at) / RFU PRF1 (11729649_at) / Fold change /veh PRF1 (11729649_at) / RFU, ZNF638 /// ZNF638-IT1 / Fold change vs veh, ZNF638 /// ZNF638-IT1 / RFU, PANK3 / Fold change vs veh, PANK3 / RFU, SH3YL1 / Fold change vs veh, SH3YL1 / RFU, ZEB2 / Fold change vs veh, ZEB2 / RFU, NRIP1 / Fold change vs veh, NRIP1 / RFU, PTTG1IP / Fold change vs veh, PTTG1IP / RFU, CAPN2 / Fold change vs veh, CAPN2 / RFU, MED14 / Fold change vs veh, MED14 / RFU, SNORA58 / Fold change vs veh, SNORA58 / RFU, C1orf63 / Fold change vs veh, C1orf63 / RFU, LRRFIP1 / Fold change vs veh, LRRFIP1 / RFU, NDUFAF7 / Fold change vs veh, NDUFAF7 / RFU, SLC12A2 / Fold change vs veh, SLC12A2 / RFU, IBTK / Fold change vs veh, IBTK / RFU, ESF1 / Fold change vs veh, ESF1 / Fold change vs veh, TMEM50B / RFU, TAOK1 / Fold change vs veh, TAOK1 / RFU, ACBD3 / Fold change vs veh, ACBD3 / RFU, TMA16 / Fold change vs veh, TMA16 / RFU, RWDD3 / Fold change vs veh, RWDD3 / RFU, BCAT1 / Fold change vs veh, BCAT1 / RFU, EDEM3 / Fold change vs veh, EDEM3 / RFU, TMEM33 / Fold change vs veh, TMEM33 / RFU, WDR75 / Fold change vs veh, WDR75 / RFU, AHCTF1 / Fold change vs veh, AHCTF1 / RFU, TFRC / Fold change vs veh, TFRC / RFU, ZDHHC17 / Fold change vs veh, ZDHHC17 / RFU, NOM1 / Fold change vs veh, NOM1 / RFU, ARL8B / Fold change vs veh, ARL8B / RFU, ZBTB11 / Fold change vs veh, ZBTB11 / RFU, TAMM41 / Fold change vs veh, TAMM41 / RFU, KIAA1704 /// LOC100996395 / Fold change vs veh, KIAA1704 /// LOC100996395 / RFU, ING1 / Fold change vs veh, ING1 / RFU, TRMT61B / Fold change vs veh, TRMT61B / RFU, FUBP3 / Fold change vs veh, FUBP3 / RFU, TP53 / Fold change vs veh, TP53 / RFU, TNKS2 / Fold change vs veh, TNKS2 / RFU, ZFP14 / Fold change vs veh, ZFP14 / RFU, ACTR2 / Fold change vs veh, ACTR2 / RFU, PPP3R1 / Fold change vs veh, PPP3R1 / RFU, PIK3R1 / Fold change vs veh, PIK3R1 / RFU, HNRNPA1 / Fold change vs veh, HNRNPA1 / RFU, RNF170 / Fold change vs veh, RNF170 / RFU, ZNF28 / Fold change vs veh, ZNF28 / RFU, RNGTT / Fold change vs veh, RNGTT / RFU, OGT / Fold change vs veh, OGT / RFU, BRD1 / Fold change vs veh, BRD1 / RFU, MARS / Fold change vs veh, MARS / RFU, ZNF655 / Fold change vs veh, ZNF655 / RFU, FAHD1 / Fold change vs veh, FAHD1 / RFU, BDP1 / Fold change vs veh, BDP1 / RFU, LRRCC1 / Fold change vs veh, LRRCC1 / RFU, ARID1A / Fold change vs veh, ARID1A / RFU, ZNF146 / Fold change vs veh, ZNF146 / RFU, ZNF330 / Fold change vs veh, ZNF330 / RFU, GPN3 / Fold change vs veh, GPN3 / RFU, C9orf123 / Fold change vs veh, C9orf123 / RFU, N4BP2L2 / Fold change vs veh, N4BP2L2 / RFU, ARFIP1 / Fold change vs veh, ARFIP1 / RFU, FAM179B / Fold change vs veh, FAM179B / RFU, BCL10 / Fold change vs veh, BCL10 / RFU, UHRF1BP1L / Fold change vs veh, UHRF1BP1L / RFU, BET1 / Fold change vs veh, BET1 / RFU, CNOT2 / Fold change vs veh, CNOT2 / RFU, ZNF268 / Fold change vs veh, ZNF268 / Fold change vs veh, ZNF507 / RFU, DGCR2 / Fold change vs veh, DGCR2 / RFU, WDSUB1 / Fold change vs veh, WDSUB1 / Fold change vs veh, HSP90B1 /// MIR3652 / RFU, ADSS / Fold change vs veh, ADSS / RFU, GK / Fold change vs veh, GK / RFU, ZNF148 / Fold change vs veh, ZNF148 / RFU, TAF9 / Fold change vs veh, TAF9 / RFU, SLC1A5 / Fold change vs veh, SLC1A5 / RFU, SLMO2 / Fold change vs veh, SLMO2 / RFU, ABCC4 / Fold change vs veh, ABCC4 / RFU, LOC101060439 /// RAP1B / Fold change vs veh, LOC101060439 /// RAP1B / RFU, RFX7 / Fold change vs veh, RFX7 / RFU, GTPBP10 / Fold change vs veh, GTPBP10 / RFU, CNEP1R1 / Fold change vs veh, CNEP1R1 / RFU, BIVM-ERCC5 /// ERCC5 / Fold change vs veh, BIVM-ERCC5 /// ERCC5 / RFU, ILF3 / Fold change vs veh, ILF3 / RFU 11762660_at / Fold change /veh 11762660_at / RFU VCAN (11757783_s_at) / Fold change /veh VCAN (11757783_s_at) / RFU DDX43 (11728927_at) / Fold change /veh DDX43 (11728927_at) / RFU KRT8 (11758188_x_at) / Fold change /veh KRT8 (11758188_x_at) / RFU NKD1 (11759106_at) / Fold change /veh NKD1 (11759106_at) / RFU SRD5A1 (11742802_a_at) / Fold change /veh SRD5A1 (11742802_a_at) / RFU TPSAB1 /// TPSB2 (11721975_s_at) / Fold change /veh TPSAB1 /// TPSB2 (11721975_s_at) / RFU GSTM3 (11746129_a_at) / Fold change /veh GSTM3 (11746129_a_at) / RFU IL23R (11737362_x_at) / Fold change /veh IL23R (11737362_x_at) / RFU TMEM51 (11727254_a_at) / Fold change /veh TMEM51 (11727254_a_at) / RFU PIWIL2 (11732686_x_at) / Fold change /veh PIWIL2 (11732686_x_at) / RFU ORM1 (11744905_x_at) / Fold change /veh ORM1 (11744905_x_at) / RFU CCDC152 (11743942_at) / Fold change /veh CCDC152 (11743942_at) / RFU ECM1 (11717891_a_at) / Fold change /veh ECM1 (11717891_a_at) / RFU IL23R (11748794_a_at) / Fold change /veh IL23R (11748794_a_at) / RFU TNFAIP8L3 (11732012_x_at) / Fold change /veh TNFAIP8L3 (11732012_x_at) / RFU MBOAT4 (11741988_at) / Fold change /veh MBOAT4 (11741988_at) / RFU 11764193_at / Fold change /veh 11764193_at / RFU TMEM53 (11763286_at) / Fold change /veh TMEM53 (11763286_at) / RFU MAGEB2 (11727129_at) / Fold change /veh MAGEB2 (11727129_at) / RFU TMEM200A (11744735_a_at) / Fold change /veh TMEM200A (11744735_a_at) / RFU CCDC152 (11751479_a_at) / Fold change /veh CCDC152 (11751479_a_at) / RFU FAM211A (11726209_a_at) / Fold change /veh FAM211A (11726209_a_at) / RFU RGS16 (11746705_a_at) / Fold change /veh RGS16 (11746705_a_at) / RFU VCAN (11755009_s_at) / Fold change /veh VCAN (11755009_s_at) / RFU RHOB (11743442_s_at) / Fold change /veh RHOB (11743442_s_at) / RFU RGS16 (11720943_a_at) / Fold change /veh RGS16 (11720943_a_at) / RFU RGS16 (11720944_at) / Fold change /veh RGS16 (11720944_at) / RFU, VPS4B / Fold change vs veh, VPS4B / RFU, CREB1 / Fold change vs veh, CREB1 / RFU, DNAJC13 / Fold change vs veh, DNAJC13 / RFU, GNAQ / Fold change vs veh, GNAQ / RFU, CDK5R1 / Fold change vs veh, CDK5R1 / RFU, ZRANB3 / Fold change vs veh, ZRANB3 / RFU, CUL4A / Fold change vs veh, CUL4A / RFU, CCNY / Fold change vs veh, CCNY / RFU, UFL1 / Fold change vs veh, UFL1 / RFU, COG3 / Fold change vs veh, COG3 / RFU, DIAPH2 / Fold change vs veh, DIAPH2 / RFU, SKA2 / Fold change vs veh, SKA2 / RFU, AFF3 / Fold change vs veh, AFF3 / RFU, LMF1 / Fold change vs veh, LMF1 / RFU, IPO11 / Fold change vs veh, IPO11 / RFU, DFFB / Fold change vs veh, DFFB / RFU, FOXP1 / Fold change vs veh, FOXP1 / RFU, CARD8 / Fold change vs veh, CARD8 / RFU, STRN3 / Fold change vs veh, STRN3 / RFU, ADK / Fold change vs veh, ADK / RFU, RASSF2 / Fold change vs veh, RASSF2 / RFU, WIPF1 / Fold change vs veh, WIPF1 / RFU, LARP1B / Fold change vs veh, LARP1B / RFU, RASA1 / Fold change vs veh, RASA1 / RFU, RB1 / Fold change vs veh, RB1 / RFU, PPFIA1 / Fold change vs veh, PPFIA1 / RFU, MAT2A / Fold change vs veh, MAT2A / RFU, CCT5 / Fold change vs veh, CCT5 / RFU, WDR92 / Fold change vs veh, WDR92 / RFU, CUX1 / Fold change vs veh, CUX1 / RFU, TTC7A / Fold change vs veh, TTC7A / RFU, TMEM135 / Fold change vs veh, TMEM135 / RFU, DEPTOR / Fold change vs veh, DEPTOR / RFU, CPM / Fold change vs veh, CPM / RFU, DNAJB6 / Fold change vs veh, DNAJB6 / RFU, CACNA2D3 / Fold change vs veh, CACNA2D3 / RFU, DTX4 / Fold change vs veh, DTX4 / RFU, TFCP2 / Fold change vs veh, TFCP2 / RFU, GMCL1 /// GMCL1P1 / Fold change vs veh, GMCL1 /// GMCL1P1 / RFU, AEBP2 / Fold change vs veh, AEBP2 / RFU, SNHG1 /// SNORD22 /// SNORD25 /// SNORD26 /// SNORD27 /// SNORD28 /// SNORD29 /// SNORD31 / Fold change vs veh, SNHG1 /// SNORD22 /// SNORD25 /// SNORD26 /// SNORD27 /// SNORD28 /// SNORD29 /// SNORD31 / Fold change (Aza/veh), C12orf56 (ProbeSet 11735607_a_at) / Fold change (ACY-1035/veh), C12orf56 (ProbeSet 11735607_a_at) / Fold change (Aza/veh), FGFR1OP (ProbeSet 11751329_s_at) / Fold change (ACY-1035/veh), FGFR1OP (ProbeSet 11751329_s_at) / Fold change (Aza/veh), VPS36 (ProbeSet 11739960_a_at) / Fold change (ACY-1035/veh), VPS36 (ProbeSet 11739960_a_at) / RFU SYPL1 (11715823_x_at) / Fold change /veh SYPL1 (11715823_x_at) / RFU IGFBP7 (11715501_s_at) / Fold change /veh IGFBP7 (11715501_s_at) / RFU REEP3 (11722064_at) / Fold change /veh REEP3 (11722064_at) / RFU IGLL1 (11728026_x_at) / Fold change /veh IGLL1 (11728026_x_at): dose or concentration left out as unconfirmed
Conditions: MV-4-11 cells, 48 hours

Nc1ccc(-c2cccs2)cc1NC(=O)c1ccc2c(c1)cc(C1CC1)n2CCN1CCOCC1 [ACY-1035]
Fold change /veh ABCC12 (11746883_a_at): 1.17
